In patent US20120269790A1, “USE OF PLANT EXTRACTS AS PREBIOTICS, COMPOSITIONS AND FOODS CONTAINING SUCH EXTRACT” (priority 2009, published 2012):

Assays:
[1] = target: T1, alpha-amylase from pancreas of pig (Sus scrofa, UniProt P00690); experiment: In vitro inhibition of pig alpha-amylase; format: biochemical; conditions: 35 micrograms/ml; 100% = activity without inhibitor
T1 construct: alpha-amylase from pancreas of pig; purchased Sigma; host or cells: pig pancreas
T1 sequence (P00690 16-511): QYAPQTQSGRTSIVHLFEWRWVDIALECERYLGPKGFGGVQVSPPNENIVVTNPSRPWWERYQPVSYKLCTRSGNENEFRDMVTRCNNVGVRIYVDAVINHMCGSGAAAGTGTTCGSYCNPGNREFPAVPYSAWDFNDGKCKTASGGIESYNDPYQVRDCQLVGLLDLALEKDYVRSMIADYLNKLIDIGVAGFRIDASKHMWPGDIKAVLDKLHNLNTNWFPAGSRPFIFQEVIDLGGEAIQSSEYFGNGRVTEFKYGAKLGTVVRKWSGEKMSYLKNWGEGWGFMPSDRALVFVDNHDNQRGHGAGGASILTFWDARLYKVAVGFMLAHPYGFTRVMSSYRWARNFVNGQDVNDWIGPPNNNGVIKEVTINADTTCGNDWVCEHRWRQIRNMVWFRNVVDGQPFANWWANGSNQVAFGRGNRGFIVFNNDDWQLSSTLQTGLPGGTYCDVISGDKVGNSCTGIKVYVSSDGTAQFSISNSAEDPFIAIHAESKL
Protocol: The enzymes tested were obtained from the following sources: alpha-amylase from pancreas of pig and alpha-glucosidase from Saccharomyces cerevisiae (both purchased from Sigma) and alpha-glucosidase from pig (isolated from pig intestine according to Menakshy et al. 2008).
Measures alpha-amylase activity and alpha-glucosidase were carried out according to procedures supplied by Sigma acquired with enzymes. Briefly, the alpha-glucosidase activity was determined spectrophotometrically at 400 nm, with p-Nitrophenyl α-D-Glucoside (PNP) as substrate and alpha-amylase activity was determined spectrophotometrically at 540 nm, with soluble potato starch as substrate. As a positive control measurements were performed with acarbose as inhibitor.
For measures with pig alpha-amylase the positive control measures were with acarbose at 35 micrograms/ml, while the concentration of pomegranate extract tested was 250 micrograms/ml.

[2] = target: T2, 3-hydroxy-3-methylglutaryl-CoA reductase (HMGR) (Homo sapiens, UniProt P04035); experiment: In vitro HMGR activity (Sigma kit); format: biochemical; conditions: 500 nanomolar; 100% = activity without inhibitor
T2 construct: purchased Sigma
T2 sequence (P04035 426-888 limits assumed): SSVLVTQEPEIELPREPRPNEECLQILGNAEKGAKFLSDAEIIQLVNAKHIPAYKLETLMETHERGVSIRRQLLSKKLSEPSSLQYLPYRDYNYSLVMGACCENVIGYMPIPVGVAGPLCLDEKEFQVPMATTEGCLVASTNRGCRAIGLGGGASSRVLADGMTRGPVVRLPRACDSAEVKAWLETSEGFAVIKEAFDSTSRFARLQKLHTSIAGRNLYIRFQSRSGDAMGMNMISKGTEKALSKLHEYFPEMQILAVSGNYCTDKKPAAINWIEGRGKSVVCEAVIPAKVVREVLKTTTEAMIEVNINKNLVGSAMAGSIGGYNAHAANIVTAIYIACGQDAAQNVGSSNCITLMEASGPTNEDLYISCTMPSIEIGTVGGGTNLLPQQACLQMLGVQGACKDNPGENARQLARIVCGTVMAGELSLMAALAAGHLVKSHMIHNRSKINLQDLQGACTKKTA
Protocol: Measurements were performed in triplicate. In the case of HMGR concentration measurements used for positive control with pravastatin was 500 nanomolar, while the concentration of pomegranate extract tested was 100 micrograms/ml.

% Pig alfa-amilase Activity [1] [%] | % HMGR activity [2] [%] | SMILES
41.2 ± 2.3 |  | C[C@H]1O[C@H](O[C@H]2[C@H](O)[C@@H](O)[C@@H](O[C@H]3[C@H](O)[C@@H](O)C(O)O[C@@H]3CO)O[C@@H]2CO)[C@H](O)[C@@H](O)[C@@H]1N[C@H]1C=C(CO)[C@@H](O)[C@H](O)[C@H]1O (some centres unmarked) [acarbose]
 | 9.7 ± 3.4 | CC[C@H](C)C(=O)O[C@H]1C[C@H](O)C=C2C=C[C@H](C)[C@H](CC[C@@H](O)C[C@@H](O)CC(=O)O)[C@H]21 [pravastatine, pravastatin]
